According to patent publication US11801309B2, “Carbohydrate-functionalized nanoparticles and uses thereof” (VIRGINIA COMMONWEALTH UNIVERSITY INTELLECTUAL PROPERTY …, priority 2016, dated 2023):

What was measured:
[1] = test system: LXR target genes (FAS and SREBP1) in hepatocytes; test: Expression of LXR target genes in hepatocytes (QPCR); format: cell-based, mouse; conditions: 0.2 μM, 24 h
Method: FIG. 6A-6D. mDNP-LXR-L delivered LXR ligand appropriately increases gene expression leading to increased FC efflux. FIGS. 6A and 6B: MPMs (FIG. 6A) or Primary hepatocytes (FIG. 6B) were plated in 6-well culture dishes and incubated with either LXR ligand T0901317 or mDNP or mDNP-LXR-L (0.2 μM) for 24 h; untreated cells were used as Controls. Expression of LXR target genes (ABCA1 and ABCG1 in MPMs and FAS and SREBP1 in hepatocytes) was evaluated by QPCR using total RNA as described under “Methods”. Data (Mean±SD, n=3) are expressed as fold increase over Controls. FIG. 6C: MPMs were plated in 6-well plates were exposed to either LXR ligand T0901317 or mDNP or mDNP-LXR-L (0.2 μM) for 24 h. Cells were washed once with cold PBS and harvested in cold buffer on ice as described under “Methods”. Following disruption of cells by sonication and removal of cell debris, CEH activity was measured using a radiometric assay. CEH activity (Mean±SD, n=3) is expressed as % untreated Controls. FIG. 6D: MPMs, plated in 24-well plate, were loaded and labeled with [^3H]-cholesterol as described under “Methods”. During the 24 h equilibration, cells were exposed to either LXR ligand T0901317 or mDNP or mDNP-LXR-L (0.2 μM). FC efflux to medium containing 10% FBS was monitored for 8 and 24 h. Data (Mean±SD, n=6) are expressed as % efflux. *P<0.05 and NS—not significant. […]

[2] = test system: atherosclerotic plaque volume in patients; conditions: randomized controlled trial; cited from earlier work

Molecule: O=S(=O)(c1ccccc1)N(CC(F)(F)F)c1ccc(C(O)(C(F)(F)F)C(F)(F)F)cc1 [free LXR-L, T0901317]
- expression of FAS and SREBP1 [1]: significant increase

B1: Evolocumab (antibody, chains of the INN, looked up, V domains shown)
VH: EVQLVQSGAEVKKPGASVKVSCKASGYTLTSYGISWVRQAPGQGLEWMGWVSFYNGNTNYAQKLQGRGTMTTDPSTSTAYMELRSLRSDDTAVYYCARGYGMDVWGQGTTVTVSS
VL: ESALTQPASVSGSPGQSITISCTGTSSDVGGYNSVSWYQQHPGKAPKLMIYEVSNRPSGVSNRFSGSKSGNTASLTISGLQAEDEADYYCNSYTSTSMVFGGGTKLTVL
- decrease in atheroma volume [2]: 0.95%
